Test results reported in patent US20070099888A1, “Inflammation Inhibitor Comprising Zinc Salt of Acylamino Acid” (priority 2004, published 2007).

Test system: AP-1
Experiment: Effect of the zinc salt of acylamino acid on AP-1 activation by ultraviolet light (gel shift assay)
Format: cell-based
Details: human dermal fibroblasts; 50 μM test compound added 18 hours before UVA 20 J/cm2; nuclear protein collected after 4 to 5 hours
Protocol: After 18 hours, the culture medium was replaced with a phenol red-free medium. By using […]-80 (manufactured by Toshiba Medical Supply Co., Ltd.), the fibroblasts were irradiated with ultraviolet light (UVA: 20 J/cm2). After 4 to 5 hours, the cells were collected, and a nuclear protein was extracted by a standard method. With regard to the obtained nuclear protein, activated AP-1 was detected by a gel shift assay. By measuring the radioactivity value of the AP-1 band using a bioimaging analyzer, BAS2000 (manufactured by Fuji Film Co., Ltd.), the amount of AP-1 was quantified. The inhibition ratio of activation of AP-1 of the test compound was calculated by the following formula. […] A1: radioactivity value of AP-1 band with addition of test compound […] A3: radioactivity value of AP-1 band without addition of test compound and without ultraviolet irradiation

Compound | Inhibition ratio of activation of AP-1
N[C@@H](CCC(=O)[O-])C(=O)[O-].[Zn+2] [Zinc salt of L-glutamic acid] | 2.4%
CCCCCCCCCCCC(=O)NCC(=O)[O-].CCCCCCCCCCCC(=O)NCC(=O)[O-].[Zn+2] [Zinc salt of N-lauroyl glycine] | 59.2%
CCCCCCCCCCCC(=O)N[C@@H](CCC(=O)[O-])C(=O)[O-].[Zn+2] [Zinc salt of N-lauroyl-L-glutamic acid] | 89.6%
CCCCCCCCCCCC(=O)N[C@@H](Cc1c[nH]cn1)C(=O)[O-].CCCCCCCCCCCC(=O)N[C@@H](Cc1c[nH]cn1)C(=O)[O-].[Zn+2] [Zinc salt of N-lauroyl-L-histidine] | 54.8%
NCC(=O)[O-].NCC(=O)[O-].[Zn+2] [Zinc salt of glycine] | −72.8%
CCCCCCCCCCCC(=O)[O-].CCCCCCCCCCCC(=O)[O-].[Zn+2] [Zinc salt of lauric acid] | 9.1%
